Source: publication PMC6411751, “Use of machine learning to identify novel, behaviorally active antagonists of the insect odorant receptor co-receptor (Orco) subunit” (Scientific Reports, 2019)

biological target: T1, Agam\Orco (Anopheles gambiae, UniProt Q7QCC7); assay: cell-based; assay type: cell-based; conditions: not given
T1 construct: expressed in transfected cells; host or cells: Xenopus laevis oocytes injected with capped cRNA (plasmid pT7TS, gift of L. Zwiebel)
T1 sequence (Q7QCC7 1-478): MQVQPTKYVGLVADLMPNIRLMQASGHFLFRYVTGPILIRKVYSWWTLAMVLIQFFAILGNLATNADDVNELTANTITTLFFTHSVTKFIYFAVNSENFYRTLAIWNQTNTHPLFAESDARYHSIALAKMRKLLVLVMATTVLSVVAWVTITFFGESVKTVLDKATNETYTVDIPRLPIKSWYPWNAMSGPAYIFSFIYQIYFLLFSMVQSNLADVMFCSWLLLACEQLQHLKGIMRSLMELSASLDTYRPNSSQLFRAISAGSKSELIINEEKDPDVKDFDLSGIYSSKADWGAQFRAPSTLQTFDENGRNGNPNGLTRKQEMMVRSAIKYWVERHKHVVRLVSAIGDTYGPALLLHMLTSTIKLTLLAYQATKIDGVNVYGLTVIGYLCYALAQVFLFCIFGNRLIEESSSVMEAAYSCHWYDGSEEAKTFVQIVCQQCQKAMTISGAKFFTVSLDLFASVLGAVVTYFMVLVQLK
Method: A 2 hr incubation with collagenase B (Roche) was used to remove follicle cells from oocytes. Capped cRNA for Agam\Orco was synthesized using mMessage mMachine kits (Thermo Fisher Scientific). 25 ng of cRNA was injected into stage V–VI oocytes, followed by a 2–5 day incubation at 18 °C in Barth’s saline (in mM: 88 NaCl, 1 KCl, 2.4 NaHCO3, 0.3 CaNO3, 0.41 CaCl2, 0.82 MgSO4, 15 HEPES, pH 7.4, and 0.05 g/L tetracycline, 0.05 g/L ciprofloxacin, 0.1 g/L amikacin) prior to electrophysiological recordings.
An automated parallel electrophysiology system (OpusExpress 6000 A, Molecular Devices) was used to record Orco agonist (OLC12) or odorant induced currents under two-electrode voltage clamp. Oocytes were perfused with ND96 (in mM: 96 NaCl, 2 KCl, 1 CaCl2, 1 MgCl2, 5 HEPES, pH 7.4). DMSO was used to prepare 1 M or 100 mM stock solutions of test compounds, which were then diluted in ND96 on the day of the experiment. Compounds were applied at a flow rate of 1.0 mL/min, with extensive washing in ND96 at 4.6 mL/min between applications. Micropipettes with resistances of 0.2–2.0 MΩ were filled with 3 M KCl. The holding potential was −70 mV. Current responses were filtered (4-pole, Bessel, low pass) at 20 Hz (−3 db) and sampled at 100 Hz. OpusXpress 1.1 software (Molecular Devices) was used to capture and store current responses.
To measure antagonist activity at Orco, Agam\Orco was activated by the Orco agonist OLC12[34]. […] The current response to OLC12 in the presence of antagonist candidate was compared to the mean of the preceding two responses to OLC12 alone and presented as a percentage[34],[35]. This value was then normalized to the value obtained when the assay was run in the absence of antagonist candidate (sham).
During development of the training panel (Fig. 2, Tables S1 and S2), all compounds not previously known to be Orco antagonists were tested at a concentration of 3 mM. […] Concentration-inhibition curves were constructed for all compounds eliciting >20 percent inhibition at 3 mM. The same concentration and criteria were used during screening of predicted actives (Fig. 4D) and predicted inactives (Fig. 5C).
Clampfit 9.1 software (Molecular Devices) was used to perform initial analysis of electrophysiological data. Prism 7 (Graphpad) was used for curve fitting. Concentration-inhibition data were fit to the equation: I = Imax/(1 + (X/IC50)^n) where I represents the current response at a given concentration of inhibitor, X; Imax is the maximal response in the absence of inhibitor; IC50 is the concentration of inhibitor present that allows a half maximal response from OLC12; n is the apparent Hill coefficient.

Molecule	IC50 [µM]	inhibition of Agam\Orco (OLC12 response) at 3 mM [%]	Orco antagonist activity	more potent than BMP [fold]
CC(C)c1cccc(C(C)(C)C)c1O [2-tert-butyl-6-isopropylphenol]	50 ± 7			
CCCCO [1-butanol]		≤ 20		
c1ccc(CNc2ccccc2)cc1 [n-benzylaniline]	114 ± 12			
CC(C)(C)c1ccccc1O [2-tert-butylphenol]	32 ± 5			
CC(C)c1cccc(C(C)C)c1O [propofol, 2,6-diisopropylphenol, reference compound]	47 ± 3		has Orco antagonist activity	
CC(C)c1ccc(CO)cc1 [4-isopropylbenzyl alcohol]	605 ± 116			
Cc1ccc(O)c(C(C)(C)C)c1 [2-tert-butyl-4-methylphenol]				2
CCc1cccc(CC)c1O [2,6-diethylphenol]	86 ± 17			
CC(C)(C)c1ccc(O)c(C(C)(C)C)c1 [2,4-di-tert-butylphenol]	15 ± 1			3

same assay, conditions: 1 mM compound, 30 µM OLC12

Molecule	inhibition of OLC12 activation
CCN(CC)C(=O)c1cccc(C)c1 [DEET, N,N-diethyl-m-toluamide, reference compound]	little or no inhibition

same assay, conditions: 3 mM compound, 30 µM OLC12

Molecule	inhibition of Agam\Orco (OLC12 response) at 3 mM [%]
CN(C)C [trimethylamine]	≤ 20
c1cscn1 [thiazole]	≤ 20

same assay, conditions: Agam\Orco IC50 compared with 3I6MC

Molecule	change in potency relative to 3I6MC
Cc1ccc(C(C)C)c(O)c1 [thymol]	slightly decreased potency

same assay, conditions: Agam\Orco IC50 compared with BMP

Molecule	change in potency relative to BMP	loss of potency relative to BMP [fold]
CC(C)c1cccc(C(C)(C)C)c1O [2-tert-butyl-6-isopropylphenol]	no effect on potency	
CC(C)(C)c1ccccc1O [2-tert-butylphenol]	slight increase in potency	
Cc1cc(C)c(O)c(C)c1 [2,4,6-trimethylphenol]		4.5
CC(C)(C)c1cccc(C(C)(C)C)c1O [2,6-di-tert-butylphenol]	slightly decreased potency	
CCc1cccc(CC)c1O [2,6-diethylphenol]	slightly decreased potency	

same assay, conditions: Table 2; inhibition of Agam\Orco activated by 30 µM OLC12; mean ± SEM (n = 3–9); read-out: IC50

Molecule	IC50 [µM]
CC(C)c1ccc(O)c(C(C)C)c1 [C00014, 2,4-diisopropylphenol]	37 ± 7
Cc1cc(C)c(O)c(C)c1 [2,4,6-trimethylphenol]	212 ± 29
Cc1ccc(O)c(C(C)(C)C)c1 [2-tert-butyl-4-methylphenol]	25 ± 3
CC(C)(C)c1cccc(C(C)(C)C)c1O [2,6-di-tert-butylphenol]	92 ± 9

same assay, conditions: Table S1; training actives; Agam\Orco activated by 30 µM OLC12; mean ± SEM (n = 3-8); read-out: IC50

Molecule	IC50 [µM]
CCCCC1Cc2ccccc2C1=O (centres unmarked) [2-butyl-1-indanone]	289 ± 28
COc1ccccc1 [anisole]	1170 ± 243
CCCCCCC1CCC(=O)O1 (centres unmarked) [γ-decalactone]	948 ± 153
CC1(O)CSC(C)(O)CS1 (centres unmarked) [2,5-dimethyl-2,5-dihydroxy-1,4-dithiane]	4860 ± 1270
CC(C)OC(=O)C=Cc1ccccc1 [isopropyl cinnamate]	153 ± 14
CC1CCC(C(C)C)C(O)C1 (single isomer, unassigned; (-)) [(-)menthol]	433 ± 78
COc1nccnc1CC(C)C [2-isobutyl-3-methoxypyrazine]	1020 ± 83
C#CC(O)CCCCC (centres unmarked) [1-octyn-3-ol]	870 ± 60
Cc1cc(C)c(NC(=O)c2cccs2)c(C)c1 [OX1L, N-mesityl-2-thiophenecarboxamide, reference compound]	58 ± 10
c1ccsc1 [thiophene]	2670 ± 147
COc1ccc(OC)cc1 [1,4-dimethoxybenzene]	1100 ± 172
SCCCCCCCCCS [1,9-nonanedithiol]	1600 ± 299
(+)-isopulegol	1370 ± 285
COc1ccccc1O [guaiacol]	4030 ± 654
O=C1CCCCCCCCCC1 [cycloundecanone]	366 ± 28
CCN(CC)C(=O)c1cccc(C)c1 [DEET, N,N-diethyl-m-toluamide, reference compound]	4480 ± 369
C=C(C)[C@@H]1CC[C@@H](C)C(=O)C1 [(+)-dihydrocarvone]	1240 ± 219
CC1(C)C(=O)[C@@]2(C)CC[C@H]1C2 [L-fenchone]	1330 ± 105
C=C(C)C1CCC(C)C(O)C1 (single isomer, unassigned; (-)) [(-)-dihydrocarveol]	818 ± 81
C=C(C)C1CC=C(C)[C@@H](O)C1 (single isomer, unassigned; (-)) [(-)-carveol]	1030 ± 117
Brc1ccccc1 [bromobenzene]	1160 ± 143
CC12CCC(CC1)C(C)(C)O2 [eucalyptol]	2960 ± 255
O=CCCc1ccccc1 [hydrocinnamaldehyde]	220 ± 24
O=Cc1ccc2c(c1)OCO2 [piperonal]	2570 ± 244

Molecule	IC50 [µM]
CCCC=O [butyraldehyde]	3000 ± 333
NCCc1c[nH]c2ccccc12 [tryptamine]	48 ± 10
CC(C)CCOC(=O)Cc1ccccc1 [isoamyl phenylacetate]	692 ± 66
CCOC(=O)c1ccccc1 [ethyl benzoate]	569 ± 44
O=Cc1ccc(O)cc1 [4-hydroxybenzaldehyde]	3620 ± 449
O=C(/C=C/c1ccccc1)OCc1ccccc1 [benzyl cinnamate]	492 ± 64
CC(C)=CCC[C@@H](C)CC=O [(R)-(+)-citronellal]	651 ± 58
CCCCc1ccc(NC(=O)CSc2nnc(-c3ccccn3)n2CC)cc1 [OLC15, N-(4-butylphenyl)-2-((4-Et-5-(2-pyridinyl)-4H-1,2,4-triazol-3-yl)thio)acetamide, reference compound]	10 ± 2
CCCCCCOC(C)=O [hexyl acetate]	841 ± 121
Cc1cccc(O)c1 [m-cresol]	1280 ± 238
Cc1ccc(CNC(=O)c2cccs2)cc1 [OX3a, N-(4-methylbenzyl)-2-thiophenecarboxamide, reference compound]	202 ± 15
Cc1ccc(C(C)C)c(O)c1 [thymol]	61 ± 10
CCOC(=O)C=Cc1c(Cl)cccc1Cl [ethyl 2,6-dichlorocinamate]	93 ± 11
(−)-terpinen-4-ol	678 ± 78
CC1CC[C@H](C(C)C)[C@@H](O)C1 (single isomer, unassigned; (+)) [(+)menthol]	443 ± 72
C=CCc1ccc(OC)c(OC)c1 [methyl eugenol]	525 ± 40
COc1ccccc1OC [veratrole]	5420 ± 845
CC1=NC(C)SC1C (centres unmarked) [2,5-dihydro-2,4,5-trimethylthiazoline]	13000 ± 2400
C=C(C)[C@H]1CC=C(C)C(=O)C1 [(S)-carvone]	1280 ± 92
Cc1ccccc1 [toluene]	1600 ± 243
CC(C=O)=Cc1ccccc1 [α-methyl cinnamaldehyde]	187 ± 40
COC(C)=O [methyl acetate]	1640 ± 179
CCCCCSC [amyl methyl sulfide]	915 ± 77

same assay, conditions: read-out: inhibition of Agam\Orco (OLC12 response) at 3 mM; 3 mM compound, 30 µM OLC12

Molecule	inhibition at 3000 µM [%]
CCOC(=O)CC [ethyl propionate]	≤ 20
c1cnccn1 [pyrazine]	≤ 20
O=C(O)CCCCBr [5-bromovaleric acid]	≤ 20
CCCCC/C=C\C/C=C\CCCCCCCC(=O)O [linoleic acid]	≤ 20
O=C(O)CCCCCBr [6-bromohexanoic acid]	≤ 20
O=C1CCCC1 [cyclopentanone]	≤ 20
CC1=CC(=O)CC(C)(C)C1 [isophorone]	≤ 20
N[C@@H](Cc1c[nH]c2ccccc12)C(=O)O [tryptophan]	≤ 20
OC[C@H]1OC(O)[C@H](O)[C@@H](O)[C@@H]1O (some centres unmarked) [glucose]	≤ 20
N[C@@H](Cc1c[nH]cn1)C(=O)O [histidine]	≤ 20
N[C@@H](Cc1ccccc1)C(=O)O [phenylalanine]	≤ 20
CC1=CCC2CC1C2(C)C (stereo not drawn) [α-pinene]	≤ 20
CCC(=O)C(C)=O [2,3-pentanedione]	≤ 20
Cc1ccnc2ccccc12 [4-methylquinoline]	≤ 20
Oc1ccccc1O [catechol]	≤ 20
